Reference: patent US11780830B2, “Triazolone derivatives or salts thereof and pharmaceutical compositions comprising the same” (YUHAN CORPORATION, priority 2018, dated 2023)
Counter-ions that a name gives are not always drawn.

How the values were obtained:
Type in all cases: biochemical
[1] = biological target: T1, recombinant human MAO-A (monoamine oxidase-A) (Homo sapiens, UniProt P21397); test: Activity on recombinant human MAO-A, method similar to the VAP-1 assay; conditions: substrate 0.5 mM tyramine; read-out: Inhibitory Activity (IC50, nM) MAO-A
T1 construct: purchased Sigma-Aldrich
T1 sequence (P21397 1-527): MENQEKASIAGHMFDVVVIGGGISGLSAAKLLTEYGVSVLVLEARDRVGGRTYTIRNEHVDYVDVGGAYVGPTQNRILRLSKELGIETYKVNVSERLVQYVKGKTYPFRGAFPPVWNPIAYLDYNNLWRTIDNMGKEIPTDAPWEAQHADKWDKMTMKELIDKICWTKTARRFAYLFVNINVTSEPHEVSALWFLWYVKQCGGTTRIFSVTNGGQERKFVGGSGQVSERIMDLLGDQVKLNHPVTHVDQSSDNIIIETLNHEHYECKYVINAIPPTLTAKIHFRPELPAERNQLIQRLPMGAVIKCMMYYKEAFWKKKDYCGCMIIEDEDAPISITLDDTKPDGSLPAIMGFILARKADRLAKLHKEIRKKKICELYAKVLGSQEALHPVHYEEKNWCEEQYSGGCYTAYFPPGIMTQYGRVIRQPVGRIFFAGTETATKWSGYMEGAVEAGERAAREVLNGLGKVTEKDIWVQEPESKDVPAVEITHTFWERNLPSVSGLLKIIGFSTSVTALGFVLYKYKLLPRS
How it was run: (§1)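 Enzyme in pH 7.4 phosphate buffer; 30 min, 37° C with compound (DMSO <1%); start with 200 uM Amplex Red + 1 U/mL HRP + tyramine 0.5 mM (MAO-A) or benzylamine 1 mM (MAO-B); kinetic read ex 544/em 590, 1-2 h; % rate decrease vs DMSO control → IC50, 4-parameter fit.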

[2] = biological target: T2, recombinant human MAO-B (monoamine oxidase-B) (Homo sapiens, UniProt P27338); test: Activity on recombinant human MAO-B, method similar to the VAP-1 assay; conditions: substrate 1 mM benzylamine; read-out: Inhibitory Activity (IC50, nM) MAO-B
T2 construct: purchased Sigma-Aldrich
T2 sequence (P27338 1-520): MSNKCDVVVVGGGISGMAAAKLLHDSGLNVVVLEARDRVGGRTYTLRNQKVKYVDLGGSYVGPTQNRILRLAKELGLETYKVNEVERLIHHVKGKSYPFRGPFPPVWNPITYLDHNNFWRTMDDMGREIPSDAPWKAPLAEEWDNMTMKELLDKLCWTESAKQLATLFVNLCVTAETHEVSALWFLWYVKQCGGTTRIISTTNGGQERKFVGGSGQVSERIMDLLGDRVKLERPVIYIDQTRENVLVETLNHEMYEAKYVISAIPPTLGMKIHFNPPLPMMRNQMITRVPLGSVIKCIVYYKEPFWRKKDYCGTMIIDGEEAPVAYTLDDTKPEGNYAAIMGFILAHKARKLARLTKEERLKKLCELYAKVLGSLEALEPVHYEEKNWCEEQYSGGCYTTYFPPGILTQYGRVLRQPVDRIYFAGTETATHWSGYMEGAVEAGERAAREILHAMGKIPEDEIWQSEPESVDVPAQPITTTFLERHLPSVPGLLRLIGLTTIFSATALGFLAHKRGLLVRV
How it was run: as §1

[3] = biological target: T3, recombinant human DAO (diamine oxidase) (Homo sapiens, UniProt P19801); test: Activity on recombinant human DAO, method similar to the VAP-1 assay; conditions: substrate 1 mM putrescine; read-out: Inhibitory Activity (IC50, nM) DAO
T3 construct: purchased R&D systems
T3 sequence (P19801 20-751): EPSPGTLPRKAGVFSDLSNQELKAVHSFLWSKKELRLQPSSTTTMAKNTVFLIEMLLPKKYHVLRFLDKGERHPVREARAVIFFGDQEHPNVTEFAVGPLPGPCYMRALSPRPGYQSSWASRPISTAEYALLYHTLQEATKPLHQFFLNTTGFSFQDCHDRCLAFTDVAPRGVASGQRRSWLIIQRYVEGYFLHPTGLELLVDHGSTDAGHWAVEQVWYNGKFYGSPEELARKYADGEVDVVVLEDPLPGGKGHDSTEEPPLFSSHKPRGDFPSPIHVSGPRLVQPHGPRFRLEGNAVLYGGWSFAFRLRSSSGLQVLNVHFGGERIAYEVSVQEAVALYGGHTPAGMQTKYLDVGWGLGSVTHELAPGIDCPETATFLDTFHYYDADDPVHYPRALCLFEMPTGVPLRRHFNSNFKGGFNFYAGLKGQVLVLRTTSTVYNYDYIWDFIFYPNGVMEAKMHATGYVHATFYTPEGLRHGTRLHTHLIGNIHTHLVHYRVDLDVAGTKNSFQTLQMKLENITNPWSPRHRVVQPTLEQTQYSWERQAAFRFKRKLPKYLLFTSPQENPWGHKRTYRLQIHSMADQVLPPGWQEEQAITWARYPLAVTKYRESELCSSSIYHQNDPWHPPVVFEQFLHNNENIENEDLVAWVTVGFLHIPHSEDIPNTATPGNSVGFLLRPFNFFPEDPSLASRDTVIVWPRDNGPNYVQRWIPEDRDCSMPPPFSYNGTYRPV
How it was run: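 Inhibition of recombinant human diamine oxidase (DAO, R&D systems) was assessed by the same approach as the VAP-1 assay, using 1 mM putrescine as substrate. Hydrogen peroxide formed was detected through an HRP-coupled Amplex Red reaction yielding fluorescent resorufin, read at 544 nm excitation and 590 nm emission. IC50 values came from four-parameter logistic fitting in GraphPad Prism.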

recombinant human VAP-1 = biological target: T4, recombinant human VAP-1 (Homo sapiens, UniProt Q16853); test: Activity on recombinant human VAP-1, HRP-coupled Amplex Red hydrogen peroxide assay; conditions: substrate 1 mM benzylamine; compound incubated with enzyme at 37° C. for 30 minutes; pH 7.4; read-out: Inhibitory Activity (IC50, nM) human VAP-1
T4 construct: purchased R&D systems
T4 sequence (Q16853 1-763): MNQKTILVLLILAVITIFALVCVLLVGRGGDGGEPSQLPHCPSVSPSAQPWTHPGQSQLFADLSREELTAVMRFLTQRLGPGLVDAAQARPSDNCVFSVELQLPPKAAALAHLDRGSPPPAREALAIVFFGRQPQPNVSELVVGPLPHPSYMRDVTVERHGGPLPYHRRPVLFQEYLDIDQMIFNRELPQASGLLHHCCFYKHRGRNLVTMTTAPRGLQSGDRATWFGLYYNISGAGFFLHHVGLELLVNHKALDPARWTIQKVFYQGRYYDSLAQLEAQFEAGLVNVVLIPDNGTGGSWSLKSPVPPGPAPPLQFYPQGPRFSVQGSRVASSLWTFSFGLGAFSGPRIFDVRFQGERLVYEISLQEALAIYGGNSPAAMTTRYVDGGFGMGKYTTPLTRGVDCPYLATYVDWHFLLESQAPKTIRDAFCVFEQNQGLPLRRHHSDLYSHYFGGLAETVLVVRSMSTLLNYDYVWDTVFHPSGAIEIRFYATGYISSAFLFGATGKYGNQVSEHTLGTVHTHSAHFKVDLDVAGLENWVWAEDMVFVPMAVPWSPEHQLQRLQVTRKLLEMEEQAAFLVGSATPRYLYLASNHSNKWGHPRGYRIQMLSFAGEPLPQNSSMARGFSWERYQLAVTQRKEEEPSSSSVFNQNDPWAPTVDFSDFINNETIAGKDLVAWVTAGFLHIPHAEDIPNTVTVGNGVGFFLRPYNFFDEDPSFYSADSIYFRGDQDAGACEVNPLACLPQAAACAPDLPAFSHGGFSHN
How it was run: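 Enzyme in 50 mM sodium phosphate (pH 7.4) is exposed to test compound for 30 min at 37 °C. Benzylamine (1 mM) with HRP and Amplex Red then starts the reaction, and the fluorescence rate, relative to a DMSO-only control, gives IC50.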

Row | IC50 [1] [nM] | IC50 [2] [nM] | IC50 [3] [nM] | IC50 (recombinant human VAP-1) [nM] | Compound
1 | > 100000 | 1600 | 1800 | 1.3 | Cn1cc(-c2ccc(Cn3cnn(C/C(=C/F)CN)c3=O)s2)ccc1=O [Example 187, 5-[5-({1-[(2E)-2-(aminomethyl)-3-fluoroprop-2-en-1-yl]-5-oxo-1,5-dihydro-4H-1,2,4-triazol-4-yl}methyl)thiophen-2-yl]-1-methylpyridin-2(1H)-one]
2 | > 100000 | > 10000 | 450 | 4.2 | CS(=O)(=O)CCn1cc(-c2ccc(Cn3cnn(C/C(=C/F)CN)c3=O)s2)ccc1=O [Example 188, 5-[5-({1-[(2E)-2-(aminomethyl)-3-fluoroprop-2-en-1-yl]-5-oxo-1,5-dihydro-4H-1,2,4-triazol-4-yl}methyl)thiophen-2-yl]-1-[2-(methylsulfonyl)ethyl]pyridin-2(1H)-one]
3 | > 100000 | 101 | 344 | 0.7 | NC/C(=C\F)Cn1ncn(Cc2ccc(-c3cccc(-c4noc(C5CC5)n4)c3)s2)c1=O [Example 36, 2-[(2E)-2-(aminomethyl)-3-fluoroprop-2-en-1-yl]-4-(5-[3-(5-cyclopropyl-1,2,4-oxadiazol-3-yl)phenyl]thiophen-2-ylmethyl)-2,4-dihydro-3H-1,2,4-triazol-3-one hydrochloride]
4 | > 100000 | 640 | 170 | 0.8 | NC/C(=C\F)Cn1ncn(Cc2ccc(-c3ccc(N4CCCCC4)nc3)s2)c1=O [Example 52, 2-[(2E)-2-(aminomethyl)-3-fluoroprop-2-en-1-yl]-4-(5-[6-(piperidin-1-yl)pyridin-3-yl]thiophen-2-ylmethyl)-2,4-dihydro-3H-1,2,4-triazol-3-one hydrochloride]
5 | > 100000 | 24000 | 420 | 0.4 | NC/C(=C\F)Cn1ncn(Cc2ccc(-c3cnc4c(c3)CCC(=O)N4)s2)c1=O [Example 148, 6-[5-({1-[(2E)-2-(aminomethyl)-3-fluoroprop-2-en-1-yl]-5-oxo-1,5-dihydro-4H-1,2,4-triazol-4-yl}methyl)thiophen-2-yl]-3,4-dihydro-1,8-naphthyridin-2(1H)-one]
6 | 72000 | 21 | 860 | 4.7 | NC/C(=C/F)Cn1ncn(Cc2ccc(-c3ccc(N)cc3)s2)c1=O [Example 3, 2-[(2Z)-2-(aminomethyl)-3-fluoroprop-2-en-1-yl]-4-[5-(4-aminophenyl)thiophen-2-yl]methyl-2,4-dihydro-3H-1,2,4-triazol-3-one hydrochloride]
7 | 25000 | 370 | 240 | 0.25 | NC/C(=C\F)Cn1ncn(Cc2ccc(-c3ccc4c(c3Cl)NC(=O)CO4)s2)c1=O [Example 95, 6-[5-[[1-[(E)-2-(aminomethyl)-3-fluoro-allyl]-5-oxo-1,2,4-triazol-4-yl]methyl]-2-thienyl]-5-chloro-4H-1,4-benzoxazin-3-one hydrochloride]
8 | > 100000 | 120 | 860 | 0.7 | NC/C(=C\F)Cn1ncn(Cc2ccc(-c3c[nH]c4ncccc34)s2)c1=O [Example 115, 2-[(2E)-2-(aminomethyl)-3-fluoroprop-2-en-1-yl]-4-[5-(1H-pyrrolo[2,3-b]pyridin-3-yl)thiophen-2-yl]methyl-2,4-dihydro-3H-1,2,4-triazol-3-one hydrochloride]
9 | 11000 | 250 | 2500 | 0.8 | NC/C(=C\F)Cn1ncn(Cc2ccc(-c3ccc4c(c3F)NCCO4)s2)c1=O [Example 106, 2-[(E)-2-(aminomethyl)-3-fluoro-allyl]-4-[[5-(5-fluoro-3,4-dihydro-2H-1,4-benzoxazin-6-yl)-2-thienyl]methyl]-1,2,4-triazol-3-one]
10 | 18000 | 14 | 3020 | 5.7 | NC/C(=C/F)Cn1ncn(Cc2ccc(Br)s2)c1=O [Example 1, 2-[(2Z)-2-(aminomethyl)-3-fluoroprop-2-en-1-yl]-4-[(5-bromothiophen-2-yl)methyl]-2,4-dihydro-3H-1,2,4-triazol-3-one]
11 | > 100000 | > 10000 | 620 | 0.3 | NC/C(=C\F)Cn1ncn(Cc2ccc(-c3ccc4c(c3)C(=O)NCC4)s2)c1=O [Example 74, 7-[5-(1-[(2E)-2-(aminomethyl)-3-fluoroprop-2-en-1-yl]-5-oxo-1,5-dihydro-4H-1,2,4-triazol-4-ylmethyl)thiophen-2-yl]-3,4-dihydroisoquinolin-1(2H)-one hydrochloride]
12 | > 100000 | 330 | 3800 | 3.4 | NC/C(=C\F)Cn1ncn(Cc2ccc(-c3cccc(-c4cc[nH]n4)c3)s2)c1=O [Example 184, 2-[(2E)-2-(aminomethyl)-3-fluoroprop-2-en-1-yl]-4-({5-[3-(1H-pyrazol-3-yl)phenyl]thiophen-2-yl}methyl)-2,4-dihydro-3H-1,2,4-triazol-3-one]
